# US6960574B2, “Antagonists of RF-amide neuropeptides” (University of Florida, priority 2002, dated 2005)
# Square brackets hold non-standard residues; d marks the D form. Peptide text beside a SMILES is read from it. * marks the point of attachment. ξ: configuration not given here. Dansyl = CN(C)c1cccc2c(S(=O)(=O)*)cccc12; ξL = CC(C)CC(N)C(=O)O
# Test system: receptor labeled by the radioiodinated analogue of 1 (4, [125I]-YLFQPQRF-NH2); neuropeptide FF receptor
# Assay: Competitive radioligand binding against 4 ([125I]Y8F-amide)
# Conditions: mixture-based positional scanning; difference from averaged radioligand displacement of whole library (0); about 80 a.u. = 10-fold change in Ki
row,Structure (SMILES),Relative Binding Index (RBI) [a.u.]
1,CCC(C)C(NC(=O)C(CCCCN)NS(=O)(=O)c1cccc2c(N(C)C)cccc12)C(=O)NC(CCCNC(=N)N)C(N)=O (stereo not drawn) [Dansyl-KIR-amide] (Dansyl-Lys-Ile-Arg-NH2; configuration not given here),31
2,CN(C)c1cccc2c(S(=O)(=O)N[C@@H](CCCCN)C(=O)N[C@@H](CCCCN)C(=O)N[C@@H](CCCNC(=N)N)C(N)=O)cccc12 [Dansyl-KKR-amide] (Dansyl-Lys-Lys-Arg-NH2),22
3,CC(C)CC(NC(=O)[C@H](CCCCN)NS(=O)(=O)c1cccc2c(N(C)C)cccc12)C(=O)N[C@@H](CCCNC(=N)N)C(N)=O (stereo partly shown) [Dansyl-KLR-amide] (Dansyl-Lys-[ξL]-Arg-NH2),16
4,CSCC[C@H](NC(=O)[C@H](CCCCN)NS(=O)(=O)c1cccc2c(N(C)C)cccc12)C(=O)N[C@@H](CCCNC(=N)N)C(N)=O [Dansyl-KMR-amide] (Dansyl-Lys-Met-Arg-NH2),25
5,CN(C)c1cccc2c(S(=O)(=O)N[C@@H](CCCCN)C(=O)N[C@@H](CC(N)=O)C(=O)N[C@@H](CCCNC(=N)N)C(N)=O)cccc12 [Dansyl-KNR-amide] (Dansyl-Lys-Asn-Arg-NH2),26
6,CN(C)c1cccc2c(S(=O)(=O)N[C@@H](CCCCN)C(=O)N3CCC[C@H]3C(=O)N[C@@H](CCCNC(=N)N)C(N)=O)cccc12 [Dansyl-KPR-amide] (Dansyl-Lys-Pro-Arg-NH2),28
7,CN(C)c1cccc2c(S(=O)(=O)N[C@@H](CCCCN)C(=O)N[C@@H](CCC(N)=O)C(=O)N[C@@H](CCCNC(=N)N)C(N)=O)cccc12 [Dansyl-KQR-amide] (Dansyl-Lys-Gln-Arg-NH2),38
8,CN(C)c1cccc2c(S(=O)(=O)N[C@@H](CCCCN)C(=O)N[C@@H](CCCNC(=N)N)C(=O)N[C@@H](CCCNC(=N)N)C(N)=O)cccc12 [Dansyl-KRR-amide] (Dansyl-Lys-Arg-Arg-NH2),23
9,CN(C)c1cccc2c(S(=O)(=O)N[C@@H](CCCCN)C(=O)N[C@@H](CO)C(=O)N[C@@H](CCCNC(=N)N)C(N)=O)cccc12 [Dansyl-KSR-amide] (Dansyl-Lys-Ser-Arg-NH2),45
10,C[C@@H](O)[C@H](NC(=O)[C@H](CCCCN)NS(=O)(=O)c1cccc2c(N(C)C)cccc12)C(=O)N[C@@H](CCCNC(=N)N)C(N)=O [Dansyl-KTR-amide] (Dansyl-Lys-Thr-Arg-NH2),30
11,CC(C)[C@H](NC(=O)[C@H](CCCCN)NS(=O)(=O)c1cccc2c(N(C)C)cccc12)C(=O)N[C@@H](CCCNC(=N)N)C(N)=O [Dansyl-KVR-amide] (Dansyl-Lys-Val-Arg-NH2),20
12,CN(C)c1cccc2c(S(=O)(=O)N[C@@H](CCCCN)C(=O)N[C@@H](Cc3c[nH]c4ccccc34)C(=O)N[C@@H](CCCNC(=N)N)C(N)=O)cccc12 [Dansyl-KWR-amide] (Dansyl-Lys-Trp-Arg-NH2),34
13,CN(C)c1cccc2c(S(=O)(=O)N[C@@H](CCCCN)C(=O)N[C@@H](Cc3ccc(O)cc3)C(=O)N[C@@H](CCCNC(=N)N)C(N)=O)cccc12 [Dansyl-KYR-amide] (Dansyl-Lys-Tyr-Arg-NH2),23
14,CC(C)C[C@H](NS(=O)(=O)c1cccc2c(N(C)C)cccc12)C(=O)N[C@@H](C)C(=O)N[C@@H](CCCNC(=N)N)C(N)=O [Dansyl-LAR-amide] (Dansyl-Leu-Ala-Arg-NH2),−81
15,CC(C)C[C@H](NS(=O)(=O)c1cccc2c(N(C)C)cccc12)C(=O)N[C@@H](CC(=O)O)C(=O)N[C@@H](CCCNC(=N)N)C(N)=O [Dansyl-LDR-amide] (Dansyl-Leu-Asp-Arg-NH2),−50
16,CC(C)C[C@H](NS(=O)(=O)c1cccc2c(N(C)C)cccc12)C(=O)N[C@@H](CCC(=O)O)C(=O)N[C@@H](CCCNC(=N)N)C(N)=O [Dansyl-LER-amide] (Dansyl-Leu-Glu-Arg-NH2),−32
